Measured values taken from US20240270809A1, “ORAL GLP RECEPTOR AGONISTS” (priority 2020, published 2024).
Positions of bridges follow the written chain, without caps; N, C: chain ends. Non-standard residues stand in square brackets, D forms with d. Residues, ends and D or L forms follow the SMILES beside them. Nle = CCCC[C@H](N)C(=O)O; Aib = CC(C)(N)C(=O)O

What was measured:
human GLP1 receptor = molecular target: T1, human GLP1 receptor (Homo sapiens, UniProt P43220); experiment: cAMP accumulation assay, functional agonism of human GLP1 receptor; type: cell-based; settings: HEK cells infected with human GLP1 receptor BacMam virus, HTRF cAMP; for Emax: HEK293, read-out: Human GLP-1R agonist cAMP Emax; for EC50: read-out: Human GLP-1R agonist cAMP pEC50 (converted)
T1 construct: expressed in transfected cells; host or cells: HEK cells, BacMam virus transduction
T1 sequence (P43220 24-463): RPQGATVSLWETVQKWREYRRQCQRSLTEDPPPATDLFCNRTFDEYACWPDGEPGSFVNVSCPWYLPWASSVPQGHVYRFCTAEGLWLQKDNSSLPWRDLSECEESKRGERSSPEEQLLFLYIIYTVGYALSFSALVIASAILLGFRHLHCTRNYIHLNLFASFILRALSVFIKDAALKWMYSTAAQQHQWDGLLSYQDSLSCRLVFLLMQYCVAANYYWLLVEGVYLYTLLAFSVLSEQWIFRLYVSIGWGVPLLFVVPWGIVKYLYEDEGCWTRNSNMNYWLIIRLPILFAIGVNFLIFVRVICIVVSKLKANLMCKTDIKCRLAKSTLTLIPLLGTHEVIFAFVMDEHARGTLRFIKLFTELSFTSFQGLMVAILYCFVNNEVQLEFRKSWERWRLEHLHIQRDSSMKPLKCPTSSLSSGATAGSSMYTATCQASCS
How it was run: (§1)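 cAMP by HTRF in BacMam-transduced HEK cells (24 h infection, frozen stocks); 0.5 mM IBMX in HBSS, 45 min, 37° C.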

human GLP2 receptor = molecular target: T2, human GLP2 receptor (Homo sapiens, UniProt O95838); experiment: cAMP accumulation assay, functional agonism of human GLP2 receptor; type: cell-based; settings: HEK cells infected with human GLP2 receptor BacMam virus, HTRF cAMP; for Emax: HEK293, read-out: Human GLP-2R agonist cAMP Emax; for EC50: read-out: Human GLP-2R agonist cAMP pEC50 (converted)
T2 construct: expressed in transfected cells; host or cells: HEK cells, BacMam virus transduction
T2 sequence (O95838 1-553): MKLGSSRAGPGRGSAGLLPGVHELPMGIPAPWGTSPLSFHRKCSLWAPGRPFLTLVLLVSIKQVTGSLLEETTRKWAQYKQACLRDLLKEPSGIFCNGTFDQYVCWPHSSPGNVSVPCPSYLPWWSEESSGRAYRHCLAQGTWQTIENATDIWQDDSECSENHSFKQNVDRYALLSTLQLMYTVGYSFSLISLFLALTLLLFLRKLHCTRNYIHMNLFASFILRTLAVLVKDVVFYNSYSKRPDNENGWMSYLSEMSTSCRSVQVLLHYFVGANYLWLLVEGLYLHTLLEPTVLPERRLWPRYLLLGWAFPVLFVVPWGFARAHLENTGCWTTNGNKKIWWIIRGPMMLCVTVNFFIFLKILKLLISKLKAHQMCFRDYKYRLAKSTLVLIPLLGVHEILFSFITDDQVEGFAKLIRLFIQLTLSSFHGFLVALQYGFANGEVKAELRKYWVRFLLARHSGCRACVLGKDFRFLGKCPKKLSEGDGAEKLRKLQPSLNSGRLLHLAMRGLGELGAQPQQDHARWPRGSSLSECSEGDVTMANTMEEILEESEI
How it was run: as §1

Row | Emax (human GLP1 receptor) | EC50 (human GLP1 receptor) | Emax (human GLP2 receptor) | EC50 (human GLP2 receptor) | Structure (SMILES)
1 | 97.1% | 2510 pM | 101% | 5.01 pM | CCCC[C@H](NC(=O)[C@H](CCC(=O)O)NC(=O)[C@H](CC(=O)O)NC(=O)[C@H](CO)NC(=O)[C@H](Cc1ccccc1)NC(=O)[C@H](CO)NC(=O)CNC(=O)[C@H](CC(=O)O)NC(=O)C(C)(C)NC(=O)[C@@H](N)Cc1c[nH]cn1)C(=O)N[C@H](Cc1ccccc1)C(=O)N[C@H](C(=O)N[C@H](C(=O)N[C@@H](CC(C)C)C(=O)N[C@@H](CC(=O)O)C(=O)N[C@@H](CC(C)C)C(=O)N[C@@H](CCCCN)C(=O)N[C@@H](C)C(=O)N[C@@H](C)C(=O)N[C@@H](CCCCN)C(=O)N[C@@H](CC(=O)O)C(=O)N[C@@H](Cc1ccccc1)C(=O)N[C@H](C(=O)N[C@H]1CCC(=O)NCCCC[C@@H](C(=O)N[C@H](C(=O)N[C@@H](CCCCN)C(=O)N[C@H](C(=O)N[C@H](C(=O)N[C@@H](CC(=O)O)C(N)=O)[C@@H](C)O)[C@@H](C)CC)[C@@H](C)O)NC(=O)[C@H]([C@@H](C)CC)NC(=O)[C@H](CC(C)C)NC(=O)[C@H](Cc2c[nH]c3ccccc23)NC1=O)[C@@H](C)CC)[C@@H](C)CC)[C@@H](C)O [Example 99] (H-H[Aib]DGSFSDE[Nle][dF]TILDLKAAKDFIEWLIKTKITD-NH2; lactam 24-28 (inferred); C-terminus assumed)
2 | 96% | 794 pM | 100% | 5.01 pM | CCCC[C@H](NC(=O)[C@H](CCC(=O)O)NC(=O)[C@H](CC(=O)O)NC(=O)[C@H](CO)NC(=O)[C@H](Cc1ccccc1)NC(=O)[C@H](CO)NC(=O)CNC(=O)[C@H](CC(=O)O)NC(=O)C(C)(C)NC(=O)[C@@H](N)Cc1c[nH]cn1)C(=O)N[C@H](Cc1ccccc1)C(=O)N[C@H](C(=O)N[C@H](C(=O)N[C@@H](CC(C)C)C(=O)N[C@@H](CC(=O)O)C(=O)N[C@@H](CC(C)C)C(=O)N[C@@H](CCCCN)C(=O)N[C@@H](C)C(=O)N[C@@H](C)C(=O)N[C@@H](CCCCN)C(=O)N[C@@H](CC(=O)O)C(=O)N[C@@H](Cc1ccccc1)C(=O)N[C@H](C(=O)N[C@H]1CCCCNC(=O)C[C@@H](C(=O)N[C@H](C(=O)N[C@@H](CCCCN)C(=O)N[C@H](C(=O)N[C@H](C(=O)N[C@@H](CC(=O)O)C(N)=O)[C@@H](C)O)[C@@H](C)CC)[C@@H](C)O)NC(=O)[C@H]([C@@H](C)CC)NC(=O)[C@H](CC(C)C)NC(=O)[C@H](Cc2c[nH]c3ccccc23)NC1=O)[C@@H](C)CC)[C@@H](C)CC)[C@@H](C)O [Example 100] (H-H[Aib]DGSFSDE[Nle][dF]TILDLKAAKDFIKWLIDTKITD-NH2; lactam 24-28; N-terminus and C-terminus assumed)

Continued, compound first:

Row | Structure (SMILES) | Emax (human GLP1 receptor) | EC50 (human GLP1 receptor) | Emax (human GLP2 receptor) | EC50 (human GLP2 receptor)
3 | CCCC[C@H](NC(=O)[C@H](CCC(=O)O)NC(=O)[C@H](CC(=O)O)NC(=O)[C@H](CO)NC(=O)[C@H](Cc1ccccc1)NC(=O)[C@H](CO)NC(=O)CNC(=O)[C@H](CC(=O)O)NC(=O)C(C)(C)NC(=O)[C@@H](N)Cc1c[nH]cn1)C(=O)N[C@H](Cc1ccccc1)C(=O)N[C@H](C(=O)N[C@H](C(=O)N[C@@H](CC(C)C)C(=O)N[C@@H](CC(=O)O)C(=O)N[C@@H](CC(C)C)C(=O)N[C@@H](CCCCN)C(=O)N[C@@H](C)C(=O)N[C@@H](C)C(=O)N[C@@H](CCCCN)C(=O)N[C@@H](CC(=O)O)C(=O)N[C@@H](Cc1ccccc1)C(=O)N[C@H](C(=O)N[C@@H](CC(N)=O)C(=O)N[C@@H](Cc1c[nH]c2ccccc12)C(=O)N[C@@H](CC(C)C)C(=O)N[C@H](C(=O)N[C@@H](CCC(N)=O)C(=O)N[C@H](C(=O)N[C@H]1CCCCNC(=O)CC[C@@H](C(N)=O)NC(=O)[C@H]([C@@H](C)O)NC(=O)[C@H]([C@@H](C)CC)NC1=O)[C@@H](C)O)[C@@H](C)CC)[C@@H](C)CC)[C@@H](C)CC)[C@@H](C)O [Example 101] (H-H[Aib]DGSFSDE[Nle][dF]TILDLKAAKDFINWLIQTKITE-NH2; lactam 30-33 (inferred); C-terminus assumed) | 96.7% | 12600 pM | 101% | 31.6 pM
4 | CCCC[C@H](NC(=O)[C@H](CCC(=O)O)NC(=O)[C@H](CC(=O)O)NC(=O)[C@H](CO)NC(=O)[C@H](Cc1ccccc1)NC(=O)[C@H](CO)NC(=O)CNC(=O)[C@H](CC(=O)O)NC(=O)C(C)(C)NC(=O)[C@@H](N)Cc1c[nH]cn1)C(=O)N[C@H](Cc1ccccc1)C(=O)N[C@H](C(=O)N[C@H](C(=O)N[C@@H](CC(C)C)C(=O)N[C@@H](CC(=O)O)C(=O)N[C@H]1CCCCNC(=O)C[C@@H](C(=O)N[C@@H](CC(=O)O)C(=O)N[C@@H](Cc2ccccc2)C(=O)N[C@H](C(=O)N[C@@H](CC(N)=O)C(=O)N[C@@H](Cc2c[nH]c3ccccc23)C(=O)N[C@@H](CC(C)C)C(=O)N[C@H](C(=O)N[C@@H](CCC(N)=O)C(=O)N[C@H](C(=O)N[C@@H](CCCCN)C(=O)N[C@H](C(=O)N[C@H](C(=O)N[C@@H](CC(=O)O)C(N)=O)[C@@H](C)O)[C@@H](C)CC)[C@@H](C)O)[C@@H](C)CC)[C@@H](C)CC)NC(=O)[C@H](C)NC(=O)[C@H](C)NC(=O)[C@H](CCCCN)NC1=O)[C@@H](C)CC)[C@@H](C)O [Example 103] (H-H[Aib]DGSFSDE[Nle][dF]TILDKKAADDFINWLIQTKITD-NH2; lactam 16-20) | 97% | 2000 pM | 100% | 1.58 pM
5 | CCCC[C@H](NC(=O)[C@H](CCC(=O)O)NC(=O)[C@@H]1CCCCNC(=O)CC[C@H](NC(=O)[C@H](CC(=O)O)NC(=O)C(C)(C)NC(=O)[C@@H](N)Cc2c[nH]cn2)C(=O)N[C@@H](CO)C(=O)N[C@@H](Cc2ccccc2)C(=O)N[C@@H](CO)C(=O)N1)C(=O)N[C@H](Cc1ccccc1)C(=O)N[C@H](C(=O)N[C@H](C(=O)N[C@@H](CC(C)C)C(=O)N[C@@H](CC(=O)O)C(=O)N[C@@H](CC(C)C)C(=O)N[C@@H](CCCCN)C(=O)N[C@@H](C)C(=O)N[C@@H](C)C(=O)N[C@@H](CCCCN)C(=O)N[C@@H](CC(=O)O)C(=O)N[C@@H](Cc1ccccc1)C(=O)N[C@H](C(=O)N[C@@H](CC(N)=O)C(=O)N[C@@H](Cc1c[nH]c2ccccc12)C(=O)N[C@@H](CC(C)C)C(=O)N[C@H](C(=O)N[C@@H](CCC(N)=O)C(=O)N[C@H](C(=O)N[C@H]1CCC(=O)NCCCC[C@@H](C(N)=O)NC(=O)[C@H]([C@@H](C)O)NC(=O)[C@H]([C@@H](C)CC)NC1=O)[C@@H](C)O)[C@@H](C)CC)[C@@H](C)CC)[C@@H](C)CC)[C@@H](C)O [Example 104] (H-H[Aib]DESFSKE[Nle][dF]TILDLKAAKDFINWLIQTEITK-NH2; lactam 4-8, 30-33 (inferred); C-terminus assumed) | 88.3% | 3980 pM | 102% | 501 pM
